The text below walks through data of patent US5290790A, “4-(4-imidazolyl) piperidines substituted at position 1, their preparation and also their therapeutic applications” (National De La Sante et De La Recherche Medicale, priority 1990, dated 1994).

Structures can show the parent of a compound that is named as a salt.

T1 sequence (Q9QYN8 whole entry): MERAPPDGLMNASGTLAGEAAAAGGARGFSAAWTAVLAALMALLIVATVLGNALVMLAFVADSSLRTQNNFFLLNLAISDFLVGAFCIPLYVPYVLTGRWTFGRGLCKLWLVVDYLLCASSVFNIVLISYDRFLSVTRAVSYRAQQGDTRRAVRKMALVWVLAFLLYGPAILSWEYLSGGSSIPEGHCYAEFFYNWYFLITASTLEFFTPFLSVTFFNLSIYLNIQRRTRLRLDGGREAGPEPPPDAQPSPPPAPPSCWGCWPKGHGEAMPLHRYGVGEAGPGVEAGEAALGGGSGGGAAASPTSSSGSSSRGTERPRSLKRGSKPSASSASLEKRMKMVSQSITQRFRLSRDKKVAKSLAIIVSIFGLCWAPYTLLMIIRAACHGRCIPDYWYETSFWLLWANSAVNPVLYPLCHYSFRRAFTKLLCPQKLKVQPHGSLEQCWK

The first experiment addresses T1, H3 histaminergic receptors (Rattus norvegicus, UniProt Q9QYN8).
Test: not given
The following applies: histamine at a concentration of 1 μM; cited from earlier work.
Turning to `NCCc1c[nH]cn1` [histamine], the “Inhibition of release by exogenous histamine” value is “approximately 50%”.

The next experiment concerns the target T1, H3 histaminergic receptors. Put plainly: Reversal by H3 antagonists of exogenous histamine-induced inhibition of histamine release in sections of rat cerebral cortex (Arrang et al.). The class given is biochemical.
Conditions: not given
The source says:
This method employs sections of rat cerebral cortex, and made possible the pharmacological characterisation of the H3 receptors (Nature, 1987, 327; 117-123).
This effect is progressively reversed in the presence of H3 antagonists such as the compounds of the invention, added at increasing concentrations. […]
`CCCCCCC(=O)N1CCC(c2cnc[nH]2)CC1` [Compound 1]: the Ki stood at 48 nM.

With `O=C(C1CC1c1ccccc1)N1CCC(c2c[nH]cn2)CC1` (centres unmarked) [Compound 13], the Ki was 20 nM.

Turning to `O=C(CC1CCC1)N1CCC(c2c[nH]cn2)CC1` [Compound 20], the Ki was 59 nM.

With `O=C(CC1CC2CCC1C2)N1CCC(c2c[nH]cn2)CC1` (centres unmarked) [Compound 23, 1-(Norbornylmethylcarbonyl)-4-(1H-imidazol-4-yl)piperidine], the Ki is 23 nM.

Take `O=C(CCc1ccccc1)N1CCC(c2c[nH]cn2)CC1` [Compound 38, 1-(3-Phenylpropionyl)-4-(1H-imidazol-4-yl)piperidine (Oxalate)]: the Ki came to 84 nM.

Turning to `O=C(CCCc1cccs1)N1CCC(c2c[nH]cn2)CC1` [Compound 43], the Ki was determined as 35 nM.

Consider `O=C(CCCCCCc1ccccc1)N1CCC(c2c[nH]cn2)CC1` [Compound 48], for which the Ki stood at 65 nM.

Consider `OC(=CCCc1ccccc1)N1CCC(c2c[nH]cn2)CC1` [Compound 59, 1-(1-Hydroxy-4-phenyl-1-buten-1-yl)-4-(4-imidazolyl)piperidine (Dihydrochloride)], for which the Ki was found to be 47 nM.

With `OC(=CCCCCCCCCCOc1ccccc1)N1CCC(c2c[nH]cn2)CC1` [Compound 60, 1-(1-Hydroxy-11-phenoxy-1-undecen-1-yl)-4-(4-imidazolyl)piperidine (dihydrochloride)], the Ki came to 120 nM.

In the case of `O=C(NCCC1CCCCC1)N1CCC(c2c[nH]cn2)CC1` [Compound 77], the Ki worked out at 68 nM.

Turning to `O=C(NCCCc1ccccc1)N1CCC(c2c[nH]cn2)CC1` [Compound 83], the Ki is 77 nM.

The same experiment, now with this note: read-out: Apparent dissociation constant (Ki) as histamine antagonists at receptors of rat brain; sections of rat cerebral cortex; exogenous histamine 1 μM; apparent Ki calculated from IC50 according to Cheng and Prusoff with histamine EC=0.1 μM.
Take `O=C(N1CCC(c2c[nH]cn2)CC1)C12CC3CC(CC(C3)C1)C2` [Compound 8]: the Ki was 63 nM.

For the compound `O=C(CCCOc1ccccc1)N1CCC(c2cn(C(=O)Nc3ccc(Cl)cc3Cl)cn2)CC1` [Compound 92, 1-(4-Phenoxybutylryl)-4-[1-(2,4-Dichlorophenylaminocarbonyl)-4-imidazolyl]piperidine], the Ki is 34 nM.
